What was measured:
eIF-2-alpha kinase GCN2 [1] = target: T1, eIF-2-alpha kinase GCN2 (Homo sapiens, UniProt Q9P2K8); test: Inhibition of GCN2-mediated elF2alpha phosphorylation in human U2OS cells after 2 hrs by immunocytochemistry; type: cell-based
eIF-2-alpha kinase GCN2 [2] = target: T1, eIF-2-alpha kinase GCN2; test: Inhibition of GCN2 (unknown origin) using GFP-elF2a as substrate preincubated with substrate for 20 mins measured after 90 mins by Lanthascreen assay

T1 sequence (Q9P2K8 whole entry): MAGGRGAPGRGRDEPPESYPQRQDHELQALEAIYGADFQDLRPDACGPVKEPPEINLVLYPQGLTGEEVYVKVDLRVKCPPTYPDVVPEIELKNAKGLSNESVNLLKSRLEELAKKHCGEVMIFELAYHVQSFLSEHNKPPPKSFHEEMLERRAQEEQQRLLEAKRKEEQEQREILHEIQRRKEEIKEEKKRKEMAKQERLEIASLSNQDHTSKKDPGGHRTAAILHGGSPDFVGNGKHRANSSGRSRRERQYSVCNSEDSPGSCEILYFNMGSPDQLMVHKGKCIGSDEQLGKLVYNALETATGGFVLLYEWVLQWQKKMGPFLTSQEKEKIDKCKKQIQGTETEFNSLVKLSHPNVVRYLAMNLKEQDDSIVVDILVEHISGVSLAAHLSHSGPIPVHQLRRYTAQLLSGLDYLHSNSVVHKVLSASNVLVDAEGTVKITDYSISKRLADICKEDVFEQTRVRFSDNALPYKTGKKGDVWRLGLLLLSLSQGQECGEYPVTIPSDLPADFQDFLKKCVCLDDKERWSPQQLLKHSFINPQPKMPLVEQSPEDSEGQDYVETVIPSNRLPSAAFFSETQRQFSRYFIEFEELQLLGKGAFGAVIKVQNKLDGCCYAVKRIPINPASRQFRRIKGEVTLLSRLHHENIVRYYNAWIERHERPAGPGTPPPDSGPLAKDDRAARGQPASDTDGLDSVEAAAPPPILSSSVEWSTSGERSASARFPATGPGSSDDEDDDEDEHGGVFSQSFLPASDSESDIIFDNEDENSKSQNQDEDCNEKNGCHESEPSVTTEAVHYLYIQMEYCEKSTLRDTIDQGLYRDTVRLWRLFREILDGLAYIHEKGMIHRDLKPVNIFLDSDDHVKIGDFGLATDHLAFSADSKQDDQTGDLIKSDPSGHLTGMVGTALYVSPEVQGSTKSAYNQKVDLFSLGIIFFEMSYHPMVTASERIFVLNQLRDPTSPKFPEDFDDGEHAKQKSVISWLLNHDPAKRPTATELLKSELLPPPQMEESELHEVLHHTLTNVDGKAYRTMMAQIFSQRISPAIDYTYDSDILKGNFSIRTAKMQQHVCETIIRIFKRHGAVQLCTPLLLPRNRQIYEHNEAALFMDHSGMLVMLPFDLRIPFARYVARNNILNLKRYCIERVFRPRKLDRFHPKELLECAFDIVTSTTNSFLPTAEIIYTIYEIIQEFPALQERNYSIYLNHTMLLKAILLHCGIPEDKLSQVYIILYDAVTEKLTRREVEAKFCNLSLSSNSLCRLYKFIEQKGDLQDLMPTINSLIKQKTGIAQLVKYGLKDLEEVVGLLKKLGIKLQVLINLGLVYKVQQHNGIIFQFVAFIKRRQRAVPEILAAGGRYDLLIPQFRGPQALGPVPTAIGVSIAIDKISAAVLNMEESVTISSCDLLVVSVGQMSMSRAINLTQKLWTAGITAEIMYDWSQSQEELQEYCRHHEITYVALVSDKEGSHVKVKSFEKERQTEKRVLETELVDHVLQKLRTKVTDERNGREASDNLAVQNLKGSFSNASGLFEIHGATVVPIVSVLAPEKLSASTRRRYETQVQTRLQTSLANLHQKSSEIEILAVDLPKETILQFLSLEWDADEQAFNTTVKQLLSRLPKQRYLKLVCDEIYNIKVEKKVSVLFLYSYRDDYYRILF

Row | Compound | IC50 (eIF-2-alpha kinase GCN2 [1]) | IC50 (eIF-2-alpha kinase GCN2 [2])
1 | c1cc2cn[nH]c2cc1-n1nnc2nc(Nc3ccn(C4CCOCC4)n3)ncc21 | < 300 nM | < 300 nM
2 | CCn1ccc(Nc2ncc3c(nnn3-c3ccc(C(C)(C)OCCO)cc3)n2)n1 | 300 nM | < 300 nM
3 | CCOc1ccc(-n2nnc3nc(Nc4ccn(CCCC5CCNCC5)n4)ncc32)cc1 | < 300 nM | < 300 nM
4 | O[C@H]1CC[C@H](n2ccc(Nc3ncc4c(nnn4-c4ccc(Cl)c(F)c4)n3)n2)CC1 | < 300 nM | < 300 nM

Reference: ChEMBL document CHEMBL3259523, “Triazolo[4,5-d]pyrimidine Derivatives as Inhibitors of GCN2” (ACS Med Chem Lett, 2014)
